pIC50, pKi: −log10 of the molar value. ≈ marks a conversion by molar mass, not a printed value.
Legend:
[1] = Solubility of the compound in PBS buffer at pH 7.4 by shake-flask method; format: physicochemical
Neuromedin-K receptor [2] = molecular target: T1, Neuromedin-K receptor (Homo sapiens, UniProt P29371); test: biochemical
T1 sequence (P29371 whole entry): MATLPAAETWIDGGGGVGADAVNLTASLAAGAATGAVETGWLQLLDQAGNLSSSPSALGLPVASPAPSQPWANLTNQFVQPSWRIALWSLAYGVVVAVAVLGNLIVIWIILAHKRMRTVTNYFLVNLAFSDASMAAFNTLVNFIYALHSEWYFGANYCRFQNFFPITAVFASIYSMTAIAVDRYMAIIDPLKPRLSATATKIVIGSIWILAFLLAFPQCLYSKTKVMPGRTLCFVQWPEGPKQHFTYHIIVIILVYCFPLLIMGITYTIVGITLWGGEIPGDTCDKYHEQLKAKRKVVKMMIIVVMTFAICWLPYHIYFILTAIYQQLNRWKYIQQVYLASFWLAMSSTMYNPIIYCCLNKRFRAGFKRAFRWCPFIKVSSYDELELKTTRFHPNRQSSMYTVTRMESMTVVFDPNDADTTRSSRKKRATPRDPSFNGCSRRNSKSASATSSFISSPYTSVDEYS
Description: Displacement of [3H]-SB222200 from recombinant human NK3R expressed in CHO cell membranes after 90 mins by scintillation counting analysis

Neuromedin-K receptor [3] = molecular target: T1, Neuromedin-K receptor
[4] = Lipophilicity, log D of the compound at pH 7.4; format: physicochemical; conditions: buffer, read-out: logD
Cytochrome P450 2C9 = Cytochrome P450 2C9 (Homo sapiens, UniProt P11712); test: Inhibition of CYP2C9 (unknown origin) by luciferase reporter assay in presence of NADPH regeneration system; format: ADME
Cytochrome P450 2D6 = Cytochrome P450 2D6 (Homo sapiens, UniProt P10635); test: Inhibition of CYP2D6 (unknown origin) by luciferase reporter assay in presence of NADPH regeneration system; format: ADME
Cytochrome P450 1A2 = molecular target: T2, Cytochrome P450 1A2 (Homo sapiens, UniProt P05177); test: Inhibition of CYP1A2 (unknown origin) by luciferase reporter assay in presence of NADPH regeneration system; format: ADME
T2 sequence (P05177 whole entry): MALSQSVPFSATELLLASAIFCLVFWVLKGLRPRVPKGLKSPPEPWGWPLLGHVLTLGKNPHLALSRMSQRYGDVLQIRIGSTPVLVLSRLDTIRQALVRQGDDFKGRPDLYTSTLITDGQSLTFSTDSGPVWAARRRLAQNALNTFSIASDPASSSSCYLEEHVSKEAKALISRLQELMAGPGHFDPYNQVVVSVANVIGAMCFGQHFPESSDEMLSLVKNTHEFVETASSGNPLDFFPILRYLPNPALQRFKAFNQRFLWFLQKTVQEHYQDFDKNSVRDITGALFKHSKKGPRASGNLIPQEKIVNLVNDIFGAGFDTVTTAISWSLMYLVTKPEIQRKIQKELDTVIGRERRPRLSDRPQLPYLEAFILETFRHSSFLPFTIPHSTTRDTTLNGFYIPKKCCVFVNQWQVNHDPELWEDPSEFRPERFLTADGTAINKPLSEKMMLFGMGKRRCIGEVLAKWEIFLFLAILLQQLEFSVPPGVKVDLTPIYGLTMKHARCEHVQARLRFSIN

Cytochrome P450 2C19 = Cytochrome P450 2C19 (Homo sapiens, UniProt P33261); test: Inhibition of CYP2C19 (unknown origin) by luciferase reporter assay in presence of NADPH regeneration system
Cytochrome P450 3A4 = Cytochrome P450 3A4 (Homo sapiens, UniProt P08684); test: Inhibition of CYP3A4 (unknown origin) by luciferase reporter assay in presence of NADPH regeneration system; format: ADME
Sequence of Cytochrome P450 3A4 (P08684 whole entry): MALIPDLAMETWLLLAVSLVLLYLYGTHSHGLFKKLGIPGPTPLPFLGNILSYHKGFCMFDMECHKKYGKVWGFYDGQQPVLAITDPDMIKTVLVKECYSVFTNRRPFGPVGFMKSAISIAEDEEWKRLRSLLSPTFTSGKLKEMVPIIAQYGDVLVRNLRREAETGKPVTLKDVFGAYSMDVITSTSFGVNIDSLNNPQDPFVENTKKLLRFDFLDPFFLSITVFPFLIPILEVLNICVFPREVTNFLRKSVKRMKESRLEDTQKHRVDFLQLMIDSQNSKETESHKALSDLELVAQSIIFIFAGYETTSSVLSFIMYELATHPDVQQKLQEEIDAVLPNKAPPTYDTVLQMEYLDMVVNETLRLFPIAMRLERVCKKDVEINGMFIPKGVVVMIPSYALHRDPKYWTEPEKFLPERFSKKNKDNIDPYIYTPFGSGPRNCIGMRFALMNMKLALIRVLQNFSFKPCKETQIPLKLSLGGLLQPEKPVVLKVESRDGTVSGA

Sequence of Cytochrome P450 2C9 (P11712 whole entry): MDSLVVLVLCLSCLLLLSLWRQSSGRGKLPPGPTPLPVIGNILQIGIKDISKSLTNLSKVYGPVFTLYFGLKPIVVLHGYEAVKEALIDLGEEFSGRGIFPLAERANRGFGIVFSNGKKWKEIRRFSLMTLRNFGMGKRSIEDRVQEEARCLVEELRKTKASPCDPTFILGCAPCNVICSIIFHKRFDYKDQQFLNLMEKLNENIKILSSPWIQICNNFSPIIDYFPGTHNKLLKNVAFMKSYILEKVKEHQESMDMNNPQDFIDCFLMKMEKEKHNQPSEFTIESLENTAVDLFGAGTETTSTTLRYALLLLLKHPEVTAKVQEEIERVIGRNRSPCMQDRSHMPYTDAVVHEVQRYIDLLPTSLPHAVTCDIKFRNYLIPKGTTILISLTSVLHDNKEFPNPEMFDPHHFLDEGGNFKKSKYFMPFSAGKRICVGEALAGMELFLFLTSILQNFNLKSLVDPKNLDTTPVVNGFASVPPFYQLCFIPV
Sequence of Cytochrome P450 2D6 (P10635 whole entry): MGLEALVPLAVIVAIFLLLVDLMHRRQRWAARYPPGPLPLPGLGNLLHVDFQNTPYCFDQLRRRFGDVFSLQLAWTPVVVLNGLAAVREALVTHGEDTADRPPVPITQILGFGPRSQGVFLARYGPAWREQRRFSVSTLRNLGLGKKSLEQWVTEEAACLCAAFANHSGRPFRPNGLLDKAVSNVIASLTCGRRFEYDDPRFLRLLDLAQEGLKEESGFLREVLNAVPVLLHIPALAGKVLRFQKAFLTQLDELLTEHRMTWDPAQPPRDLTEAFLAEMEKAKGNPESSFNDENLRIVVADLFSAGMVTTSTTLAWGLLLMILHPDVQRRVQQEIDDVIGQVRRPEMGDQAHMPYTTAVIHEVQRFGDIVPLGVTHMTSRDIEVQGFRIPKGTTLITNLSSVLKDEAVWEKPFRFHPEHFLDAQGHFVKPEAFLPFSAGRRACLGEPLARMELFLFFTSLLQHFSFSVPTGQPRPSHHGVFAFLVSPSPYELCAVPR
Sequence of Cytochrome P450 2C19 (P33261 whole entry): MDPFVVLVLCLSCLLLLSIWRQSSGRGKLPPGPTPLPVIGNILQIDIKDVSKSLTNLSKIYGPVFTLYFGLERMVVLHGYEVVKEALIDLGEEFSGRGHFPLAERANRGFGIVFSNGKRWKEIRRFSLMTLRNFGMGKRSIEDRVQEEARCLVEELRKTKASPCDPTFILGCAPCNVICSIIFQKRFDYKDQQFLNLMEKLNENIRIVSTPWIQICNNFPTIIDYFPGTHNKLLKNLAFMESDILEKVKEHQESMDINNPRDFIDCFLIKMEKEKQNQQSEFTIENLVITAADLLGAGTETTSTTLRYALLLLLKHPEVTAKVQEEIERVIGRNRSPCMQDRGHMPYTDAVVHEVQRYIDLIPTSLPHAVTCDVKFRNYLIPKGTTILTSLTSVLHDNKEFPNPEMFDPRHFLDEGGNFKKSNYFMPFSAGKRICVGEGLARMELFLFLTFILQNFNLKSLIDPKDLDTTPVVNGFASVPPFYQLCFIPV

`O=C(c1ccc(-c2cccs2)cc1)N1CCn2c(nnc2-c2ccccn2)C1` showed a solubility thermodynamic [1] of 12 µM (≈ 4.65 µg/mL), a pKi (Neuromedin-K receptor [2]) of 6.30 and a pIC50 (Neuromedin-K receptor [3]) of 6.20.

`Cc1ccc(-c2ccc(C(=O)N3CCn4c(nnc4-c4ccccn4)C3)cc2)o1` gave a solubility thermodynamic [1] of 71 µM (≈ 27.4 µg/mL), a pKi (Neuromedin-K receptor [2]) of 4.80 and a pIC50 (Neuromedin-K receptor [3]) of 5.00.

`C[C@@H]1c2nnc(-c3csc(C(F)(F)F)n3)n2CCN1C(=O)c1ccc(-c2cccs2)cc1` gave a solubility thermodynamic [1] of 11 µM (≈ 5.23 µg/mL), a pKi (Neuromedin-K receptor [2]) of 7.10 and a logD [4] of 4.1. The pIC50 (Cytochrome P450 2C9) was 5.30, the pIC50 (Cytochrome P450 2D6) was < 4.00 and the pIC50 (Neuromedin-K receptor [3]) was 7.20. For the same compound, the pIC50 (Cytochrome P450 1A2) was 5.10, the pIC50 (Cytochrome P450 2C19) was 4.74 and the pIC50 (Cytochrome P450 3A4) was < 4.00.

For `COc1ccc(-c2ccc(C(=O)N3CCn4c(nnc4-c4ccccn4)C3)cc2)cc1`, the solubility thermodynamic [1] was 6.4 µM (≈ 2.63 µg/mL), the pKi (Neuromedin-K receptor [2]) was < 4.50 and the pIC50 (Neuromedin-K receptor [3]) was < 4.50.

With `Cc1cccc(-c2nnc3n2CCN(C(=O)c2ccc(F)cc2)C3)n1` the solubility thermodynamic [1] was ≥ 200 µM, the pKi (Neuromedin-K receptor [2]) was 6.30 and the logD [4] was 1.4. The pIC50 (Cytochrome P450 2C9) was < 4.00, the pIC50 (Cytochrome P450 2D6) was < 4.00 and the pIC50 (Neuromedin-K receptor [3]) was 6.30. For the same compound, the pIC50 (Cytochrome P450 1A2) was 4.16, the pIC50 (Cytochrome P450 2C19) was 4.32 and the pIC50 (Cytochrome P450 3A4) was < 4.00.

`Cc1cccc(-c2nnc3n2CCN(C(=O)c2ccc(F)cc2)[C@@H]3C)n1` showed a solubility thermodynamic [1] of 197 µM (≈ 69.2 µg/mL), a pKi (Neuromedin-K receptor [2]) of 7.20 and a logD [4] of 1.6. It also gave a pIC50 (Neuromedin-K receptor [3]) of 7.10.

In the case of `Cc1cccnc1-c1nnc2n1CCN(C(=O)c1ccc(F)cc1)C2`, the solubility thermodynamic [1] was ≥ 200 µM, the pKi (Neuromedin-K receptor [2]) was < 4.50 and the pIC50 (Neuromedin-K receptor [3]) was < 4.50.

For `O=C(c1ccc(-c2ccccc2)cc1)N1CCn2c(nnc2-c2ccccn2)C1`, the solubility thermodynamic [1] was 28 µM (≈ 10.7 µg/mL), the pKi (Neuromedin-K receptor [2]) was 5.90 and the pIC50 (Neuromedin-K receptor [3]) was 5.80.

For `Cc1nc(-c2nnc3n2CCN(C(=O)c2ccc(F)cc2)[C@@H]3C)cs1`, the solubility thermodynamic [1] was ≥ 200 µM, the logD [4] was 1.3 and the pIC50 (Cytochrome P450 2C9) was 4.25. For the same compound, the pIC50 (Cytochrome P450 2D6) was < 4.00, the pIC50 (Cytochrome P450 1A2) was < 4.00 and the pIC50 (Cytochrome P450 2C19) was 4.36. For the same compound, the pIC50 (Cytochrome P450 3A4) was 4.20.

Work on `Cc1cccc(-c2nnc3n2CCN(C(=O)c2ccc(-c4cccs4)cc2)[C@@H]3C)n1` yielded a solubility thermodynamic [1] of 110 µM (≈ 45.7 µg/mL), a logD [4] of 3.4 and a pIC50 (Cytochrome P450 2C9) of 4.74. For the same compound, the pIC50 (Cytochrome P450 2D6) was 4.07, the pIC50 (Neuromedin-K receptor [3]) was 8.00 and the pIC50 (Cytochrome P450 1A2) was 4.24. For the same compound, the pIC50 (Cytochrome P450 2C19) was 4.59 and the pIC50 (Cytochrome P450 3A4) was 4.35.

With `COc1ccccc1C(=O)N1CCn2c(nnc2-c2ccccn2)C1` the solubility thermodynamic [1] was ≥ 200 µM, the pKi (Neuromedin-K receptor [2]) was < 4.50 and the pIC50 (Neuromedin-K receptor [3]) was < 4.50.

In the case of `Cc1nc(-c2nnc3n2CCN(C(=O)c2ccc(-c4cccs4)cc2)[C@H]3C)cs1`, the logD [4] was 3.1.

In the case of `O=C(c1ccccc1F)N1CCn2c(nnc2-c2ccccn2)C1`, the solubility thermodynamic [1] was ≥ 200 µM, the pKi (Neuromedin-K receptor [2]) was < 4.50 and the pIC50 (Neuromedin-K receptor [3]) was < 4.50.

With `O=C(c1ccc(F)cc1)N1CCn2c(nnc2-c2cccc(C(F)(F)F)n2)C1` the solubility thermodynamic [1] was 193 µM (≈ 75.5 µg/mL), the pKi (Neuromedin-K receptor [2]) was 6.40 and the pIC50 (Cytochrome P450 2C9) was < 4.00. The pIC50 (Cytochrome P450 2D6) was < 4.00, the pIC50 (Neuromedin-K receptor [3]) was 6.40 and the pIC50 (Cytochrome P450 1A2) was 4.68. The pIC50 (Cytochrome P450 2C19) was < 4.00 and the pIC50 (Cytochrome P450 3A4) was < 4.00.

`C[C@@H]1c2nnc(-c3csc(-c4ccccc4)n3)n2CCN1C(=O)c1ccc(F)cc1` showed a solubility thermodynamic [1] of 179 µM (≈ 75.1 µg/mL), a pKi (Neuromedin-K receptor [2]) of 7.60 and a logD [4] of 3.4. The pIC50 (Cytochrome P450 2C9) was 4.72, the pIC50 (Cytochrome P450 2D6) was 4.27 and the pIC50 (Neuromedin-K receptor [3]) was 7.80. It also gave a pIC50 (Cytochrome P450 1A2) of 4.60, a pIC50 (Cytochrome P450 2C19) of 4.72 and a pIC50 (Cytochrome P450 3A4) of 4.17.

With `C[C@@H]1c2nnc(-c3ccccn3)n2CCN1C(=O)c1ccc(F)cc1` the solubility thermodynamic [1] was ≥ 200 µM, the pKi (Neuromedin-K receptor [2]) was 6.10 and the pIC50 (Neuromedin-K receptor [3]) was 6.10.

`Cc1csc(-c2nnc3n2CCN(C(=O)c2ccc(-c4cccs4)cc2)[C@@H]3C)n1` showed a solubility thermodynamic [1] of 50 µM (≈ 21.1 µg/mL), a pKi (Neuromedin-K receptor [2]) of 8.20 and a logD [4] of 2.9. It also gave a pIC50 (Cytochrome P450 2C9) of 5.10, a pIC50 (Cytochrome P450 2D6) of 4.38 and a pIC50 (Cytochrome P450 1A2) of 5.10. For the same compound, the pIC50 (Cytochrome P450 2C19) was 4.74 and the pIC50 (Cytochrome P450 3A4) was 4.96.

With `C[C@H]1c2nnc(-c3ccccn3)n2CCN1C(=O)c1ccc(F)cc1` the solubility thermodynamic [1] was ≥ 200 µM, the pKi (Neuromedin-K receptor [2]) was 5.10 and the pIC50 (Neuromedin-K receptor [3]) was 5.10.

`Cc1cncc(-c2nnc3n2CCN(C(=O)c2ccc(-c4cccs4)cc2)[C@@H]3C)n1` gave a solubility thermodynamic [1] of 160 µM (≈ 66.6 µg/mL), a pKi (Neuromedin-K receptor [2]) of 7.90 and a logD [4] of 2.7. The pIC50 (Cytochrome P450 2C9) was 4.77, the pIC50 (Cytochrome P450 2D6) was < 4.00 and the pIC50 (Neuromedin-K receptor [3]) was 7.70. For the same compound, the pIC50 (Cytochrome P450 1A2) was 4.30, the pIC50 (Cytochrome P450 2C19) was 4.41 and the pIC50 (Cytochrome P450 3A4) was 5.70.

With `O=C(c1ccc(Cc2ccccc2)cc1)N1CCn2c(nnc2-c2ccccn2)C1` the solubility thermodynamic [1] was 169 µM (≈ 66.8 µg/mL), the pKi (Neuromedin-K receptor [2]) was < 4.50 and the pIC50 (Neuromedin-K receptor [3]) was < 4.50.

For `COc1cccc(C(=O)N2CCn3c(nnc3-c3ccccn3)C2)c1`, the solubility thermodynamic [1] was 196 µM (≈ 65.7 µg/mL), the pKi (Neuromedin-K receptor [2]) was < 4.50 and the pIC50 (Neuromedin-K receptor [3]) was < 4.50.

In the case of `Cc1ccnc(-c2nnc3n2CCN(C(=O)c2ccc(F)cc2)C3)c1`, the solubility thermodynamic [1] was ≥ 200 µM, the pKi (Neuromedin-K receptor [2]) was 5.20 and the pIC50 (Neuromedin-K receptor [3]) was 5.20.

For `O=C(c1cccc(F)c1)N1CCn2c(nnc2-c2ccccn2)C1`, the solubility thermodynamic [1] was 199 µM (≈ 64.3 µg/mL), the pKi (Neuromedin-K receptor [2]) was 5.30 and the pIC50 (Neuromedin-K receptor [3]) was 5.20.

For `O=C(c1ccc(-c2ccc(Cl)cc2)cc1)N1CCn2c(nnc2-c2ccccn2)C1`, the solubility thermodynamic [1] was 5.3 µM (≈ 2.2 µg/mL), the pKi (Neuromedin-K receptor [2]) was 5.30 and the pIC50 (Neuromedin-K receptor [3]) was 5.40.

In the case of `O=C(c1ccc(-c2ccc(F)cc2)cc1)N1CCn2c(nnc2-c2ccccn2)C1`, the solubility thermodynamic [1] was 10 µM (≈ 3.99 µg/mL), the pKi (Neuromedin-K receptor [2]) was 5.70 and the pIC50 (Neuromedin-K receptor [3]) was 5.80.

For `Cc1ccc(-c2nnc3n2CCN(C(=O)c2ccc(F)cc2)C3)nc1`, the solubility thermodynamic [1] was ≥ 200 µM, the pKi (Neuromedin-K receptor [2]) was 5.80 and the pIC50 (Neuromedin-K receptor [3]) was 5.60.

In the case of `COc1ccc(C(=O)N2CCn3c(nnc3-c3ccccn3)C2)cc1`, the solubility thermodynamic [1] was 194 µM (≈ 65.1 µg/mL), the pKi (Neuromedin-K receptor [2]) was < 4.50 and the pIC50 (Neuromedin-K receptor [3]) was < 4.50.

`CC(C)c1nc(-c2nnc3n2CCN(C(=O)c2ccc(-c4cccs4)cc2)[C@@H]3C)cs1` showed a solubility thermodynamic [1] of 25 µM (≈ 11.2 µg/mL), a pKi (Neuromedin-K receptor [2]) of 8.60 and a logD [4] of 4.4. For the same compound, the pIC50 (Cytochrome P450 2C9) was 5.40, the pIC50 (Cytochrome P450 2D6) was 4.57 and the pIC50 (Neuromedin-K receptor [3]) was 8.40. For the same compound, the pIC50 (Cytochrome P450 1A2) was 4.77, the pIC50 (Cytochrome P450 2C19) was 4.92 and the pIC50 (Cytochrome P450 3A4) was 4.46.

In the case of `O=C(c1cc(-c2ccc(Cl)cc2)n[nH]1)N1CCn2c(nnc2-c2ccccn2)C1`, the solubility thermodynamic [1] was 1.4 µM (≈ 0.568 µg/mL), the pKi (Neuromedin-K receptor [2]) was 5.80 and the pIC50 (Neuromedin-K receptor [3]) was 5.80.

Reference: ChEMBL document CHEMBL3421625, “Discovery and optimization of novel antagonists to the human neurokinin-3 receptor for the treatment of sex-hormone disorders (Part I)” (J Med Chem, 2015)
